This is an account of results in paper PMC5981617, “Targeted Delivery of Cell Penetrating Peptide Virus-like Nanoparticles to Skin Cancer Cells” (Scientific Reports, 2018).

Structures can show the parent of a compound that is named as a salt. No end group written: not given here. *: point of attachment. FITC = O=C1OC2(c3ccc(O)cc3Oc3cc(O)ccc32)c2ccc(NC(=S)*)cc21

Format in all cases: cell-based, human
For data set [1], the system named is A431 cells. Put plainly: Endocytosis inhibitory assay (entry of FITC-peptide, fluorescence microscopy). The settings on record: 30 min pre-treatment, then FITC-NRPDSAQFWLHH 0.25 mM, 16 h, 37 °C; CPZ 6 µg/mL, MβCD 1.5 mM, Cyt D 10 µg/mL, genistein 200 µM. How it is done: Four endocytosis inhibitors [Cyt D (10 µg/mL; Calbiochem, San Diego, California, USA), CPZ (6 µg/mL; Santa Cruz Biotechnology, Dallas, Texas, USA), MβCD (1.5 mM; Sigma Aldrich, St. Louis, Missouri, USA) and genistein (200 µM; Calbiochem, San Diego, California, USA)] were used to study the energy-dependent endocytosis of peptide […] into A431 cells. The cells (200,000 cells/well) were seeded onto sterile glass coverslips which had been placed in a six-well plate, and incubated at 37 °C for overnight. The medium was then removed and the cells were pretreated with the inhibitors at 37 °C for 30 min. After the pretreatment with inhibitors, FITC-[…] (0.25 mM) was added to the cells and incubated for 16 h at 37 °C in the presence of inhibitors. After removing the medium, the cells were washed, fixed and stained with Hoechst 33342. The cells were mounted onto a glass slide and examined under a fluorescence microscope.

Data set [2] deals with A431 cells. Put plainly: MTT assay, cell viability in the presence of endocytosis inhibitors. As to conditions: Cyt D 10 µg/mL, genistein 200 µM, CPZ 6 µg/mL, MβCD 1.5 mM, n = 3. In general terms: Tetrazolium assays rely on reduction of a dye to a coloured formazan, in cell work by metabolically active cells.
In data set [3] the test system is A431 cells. Put plainly: Internalisation of FITC-labelled peptide, fluorescence microscopy. As to conditions: 0.25 mM, 37 °C, 16 h. As to the method:
(§1) The selective internalisation property of peptide […] was tested on NHDF and A431 cells. These cells (200,000 cells/well) were seeded separately onto sterile glass coverslips which had been placed in a six-well plate, and incubated overnight at 37 °C. After changing the medium, the cells were added with FITC-conjugated peptide (FITC-[…]; 0.25 mM; Mimotopes Pty Ltd, Clayton, Victoria, Australia), and incubated for 16 h at 37 °C. The cells were then washed 3 times with PBS and fixed with paraformaldehyde [3.7% (w/v)]. Hoechst 33342 was added and incubated for 10 min to stain the cell nuclei. The cells were mounted onto a glass slide and observed under a fluorescence microscope.
(§2) A431 and HT29 cell lines (200,000 cells/well) were seeded onto sterile glass coverslips in a six-well plate and incubated overnight at 37 °C. After changing the medium, peptide FITC-[…] (0.25 mM) was added to the cell lines and incubated at 37 °C for 16 h in a CO2 incubator. The cells were then washed, fixed, stained with Hoechst 33342, and viewed under a fluorescence microscope. The amount of phage internalised into A431 and HT29 cells (1 × 10^6 cells) which had been incubated with the purified phage (1 × 10^12 pfu) at 37 °C for 12 h was measured with the phage titration assay as described above.

For another data set, the system named is NHDF cells. Described as above. As to conditions: 0.25 mM, 37 °C, 16 h. As to the method: as §1
The test system of the next data set is HT29 cells. As to the kind of experiment: Internalisation of FITC-labelled peptide in cell line with lower EGFr expression. The settings on record: 0.25 mM, 37 °C, 16 h; HT29 9 × 10^3 EGFr/cell; fluorescence microscopy. How it is done:
as §2

In the case of `CN(C)CCCN1c2ccccc2Sc2ccc(Cl)cc21` [CPZ, chlorpromazine hydrochloride], in the data set on A431 cells [1], the “Effect of endocytosis inhibitor on internalisation of peptide NRPDSAQFWLHH (green granular appearance)” value (from here on “Effect of endocytosis inhibitor”) is “reduced drastically”. For the same molecule, the “Viability of A431 cells in the presence of inhibitor” value (from here on “Viability … of inhibitor”) with A431 cells [2] is reported as “over 83%”.

On to `C=C1[C@@H](C)[C@H]2[C@H](Cc3ccccc3)NC(=O)[C@]23[C@H](OC(C)=O)/C=C/[C@@](C)(O)C(=O)[C@@H](C)C/C=C/[C@H]3[C@@H]1O` [Cyt D, cytochalasin D], for which the “Effect of endocytosis inhibitor” value in the data set on A431 cells [1] is “did not inhibit internalisation”. In addition, the “Viability … of inhibitor” value in the data set with A431 cells [2] is listed as “over 83%”.

Regarding `O=c1c(-c2ccc(O)cc2)coc2cc(O)cc(O)c12` [genistein], the “Effect of endocytosis inhibitor” value in the data set with A431 cells [1] is “did not inhibit internalisation”. In the data set on A431 cells [2], the “Viability … of inhibitor” value was “over 83%”.

With methyl-β-cyclodextrin [MβCD], in the data set on A431 cells [1], the “Effect of endocytosis inhibitor” value is recorded as “reduced drastically”. The “Viability … of inhibitor” value in the data set on A431 cells [2] was “over 83%”.

{FITC}-NRPDSAQFWLHH: the “Internalisation of FITC-labelled peptide into A431 cells” value in the data set with A431 cells [3] is listed as “taken up efficiently”. For the same molecule, the “Internalisation of FITC-labelled peptide into NHDF cells” value in the data set with NHDF cells was “no significant fluorescent signal was observed”. Also, the “Internalisation of FITC-labelled peptide into HT29 cells” value in the data set with HT29 cells is listed as “no significant green fluorescent granules were observed”.
